The text below walks through data of US20240174622A1, “COMPOUND AND RADIOACTIVE LABELING COMPOUND” (NIHON MEDI-PHYSICS CO., LTD., priority 2021, published 2024).

The conditions of data set [1]: compared with one hour after administration; EJNMMI Res 2012, J Nucl Med 2017; cited from earlier work.
Data set [2] relates to LNCaP tumor. Format: in vivo, mouse. The conditions noted are these: for time after administration at which a significant difference in tumor volume from the saline-administered group was observed: 3.7 MBq, tail vein. As for the experimental part:
LNCaP tumor-implanted mice were administered saline solutions (100 μL) of [^90Y]Y-PSMA-DA1 (3.7 MBq) or [^90Y]Y-PSMA-DB (3.7 MBq) obtained by the method described above from the tail vein (n=7). As the control group, LNCaP tumor-implanted mice were administered 100 μL of saline from the tail vein (n=7). After administration of the ^90Y-labeling compound, the tumor volume and body weight were measured 3 times per week. The tumor volume was calculated based on the calculation formula “(tumor volume)=[(long side) x (short side) 2/2]”.

Data set [3] deals with LNCaP tumor-transplanted mouse. In words: Internal radioactivity distribution using LNCaP tumor-transplanted mouse. It counts as in vivo. A digest of the protocol: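 Biodistribution is given as percent injected dose per gram of tissue, measured in blood and organs harvested at time points from 1 h to 192 h. Radiotracers were given by tail-vein injection in saline at 185–259 kBq, n=2–3. Hosts were male CB17 SCID mice carrying LNCaP or PC-3 tumours implanted s.c. in Matrigel 40–60 days earlier.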

In data set [4] the target is human serum albumin (HSA) (Homo sapiens, UniProt P02768). In words: Evaluation of binding to albumin (HSA solution, PBS control). The conditions noted are these: left to stand in HSA solution (45 mg/mL). A digest of the protocol:
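Albumin binding read as the split of radioactivity between eluate and retained column fraction after gamma counting. Samples in human albumin or PBS control were centrifuged 2 min at 1500×g, 4° C., through Sephadex G-100 or G-50 spin columns.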

In data set [5] the test system is LNCaP tumor. The experiment in a line: Evaluation of suppressing tumor growth by 225Ac-labeling compound. It counts as in vivo, mouse. To be noted: 20 kBq, tail vein. As for the experimental part: [^225Ac]Ac-PSMA-DA1 (20 kBq) or [^225Ac]Ac-PSMA-DB (20 kBq) obtained by the above method was dissolved in 5% ethanol-containing acetate buffer (158 mM, pH 6.5, 100 μL), and the solution was administered to LNCaP tumor-transplanted mice from the tail vein (n=6 or 5). As the control group, 100 μL of 5% ethanol-containing acetate buffer (158 mM, pH 6.5) was administered to LNCaP tumor-transplanted mice from the tail vein (n=4).
After administration of the ^225Ac-labeling compound, the tumor volume and body weight were measured 2 times per week. The tumor volumes on the day when administration of ^225Ac-labeling compound was started were 75.3±26.0, 80.6±20.8, and 91.1±15.9 mm^3 for the groups administered [^225Ac]Ac-PSMA-DA1, [^225Ac]Ac-PSMA-DB, and 5% ethanol-containing acetate buffer, respectively.

Sequence of human serum albumin (HSA) (P02768 25-609): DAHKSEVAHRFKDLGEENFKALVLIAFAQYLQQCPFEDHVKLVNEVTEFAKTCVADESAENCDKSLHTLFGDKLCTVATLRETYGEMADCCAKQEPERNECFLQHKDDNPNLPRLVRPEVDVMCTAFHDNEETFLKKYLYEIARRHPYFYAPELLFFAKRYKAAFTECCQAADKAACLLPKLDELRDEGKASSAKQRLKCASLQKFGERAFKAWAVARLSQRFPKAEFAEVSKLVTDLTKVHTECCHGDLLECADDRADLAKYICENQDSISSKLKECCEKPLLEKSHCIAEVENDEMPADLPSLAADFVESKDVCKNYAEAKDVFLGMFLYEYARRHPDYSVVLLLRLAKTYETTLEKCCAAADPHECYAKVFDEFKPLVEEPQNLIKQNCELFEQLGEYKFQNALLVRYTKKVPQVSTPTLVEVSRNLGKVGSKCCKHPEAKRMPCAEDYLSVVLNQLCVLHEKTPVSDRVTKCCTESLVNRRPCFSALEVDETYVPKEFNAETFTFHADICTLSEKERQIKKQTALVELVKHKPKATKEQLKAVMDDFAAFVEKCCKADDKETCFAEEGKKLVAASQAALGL

Consider `O=C([O-])CN(CCN(CC(=O)[O-])Cc1cc(CCC(=O)NCCCCCC(=O)NCCCC[C@H](NC(=O)N[C@@H](CCC(=O)O)C(=O)O)C(=O)O)ccc1[O-])Cc1cc(CCC(=O)O)ccc1[O-].[68Ga+3].[OH3+]` [[^68Ga]Ga-PSMA-11], for which the “kidney accumulation of known radiolabeled compound” value in data set [1] is 139 % ID/g.
Consider `O=C([O-])CN1CCN(C(CCC(=O)NCCCC[C@H](NC(=O)N[C@@H](CCC(=O)O)C(=O)O)C(=O)O)C(=O)[O-])CCN(CC(=O)[O-])CCN(C(CCC(=O)N[C@@H](CCCCNC(=O)CCCc2ccc(I)cc2)C(=O)O)C(=O)[O-])CC1.[90Y+3]` (stereo partly shown) [[^90Y]Y-PSMA-DA1], for which, in the data set on LNCaP tumor [2], the “time after administration at which a significant difference in tumor volume from the saline-administered group was observed” value was found to be 9 days. Besides, the “body weight of the mice” value with LNCaP tumor [2] (mouse, in vivo) is “slightly reduced”.
Turning to `O=C([O-])CN1CCN(C(CCC(=O)NCCCC[C@H](NC(=O)N[C@@H](CCC(=O)O)C(=O)O)C(=O)O)C(=O)[O-])CCN(CC(=O)[O-])CCN(C(CCC(=O)Nc2ccccc2)C(=O)[O-])CC1.[90Y+3]` (stereo partly shown) [[^90Y]Y-PSMA-DB, reference compound], in the data set with LNCaP tumor [2], the “time after administration at which a significant difference in tumor volume from the saline-administered group was observed” value was found to be 33 days.
Consider `O=C([O-])CN(Cc1cccc(C(=O)[O-])n1)C[C@H](Cc1ccc(NC(=O)[C@H](CCCCNC(=O)CCC(=O)NCCCC[C@H](NC(=O)N[C@@H](CCC(=O)O)C(=O)O)C(=O)O)NC(=O)COCCOCCOCC(=O)N[C@@H](CCCCNC(=O)CCCc2ccc(I)cc2)C(=O)O)cc1)N(CC(=O)[O-])Cc1cccc(C(=O)[O-])n1.[111In+3]` [[^111In]In-Octapa-3], for which, in data set [3] (1 h after administration), the Blood is 27.2 ± 2.92 % ID/g, the Brain came out at 0.40 ± 0.05 % ID/g, the Heart is 6.53 ± 0.66 % ID/g and the Intestine worked out at 2.60 ± 0.48 % ID/g. In data set [3] (1 h after administration), the Kidney is recorded as 57.1 ± 17.4 % ID/g, the “LNCaP Tumor” value is given as 7.79 ± 1.11 % ID/g, the Liver stood at 4.32 ± 0.40 % ID/g and the Lung was found to be 16.7 ± 1.41 % ID/g. Moreover, in data set [3] (1 h after administration), the Muscle was 1.51 ± 0.23 % ID/g, the Pancreas is given as 2.59 ± 0.26 % ID/g, the Spleen turned out to be 8.56 ± 0.95 % ID/g and the “Stomach (% ID)” value is recorded as 0.49 ± 0.04 % ID. Moreover, in data set [3] (4 h after administration), the Blood amounted to 19.3 ± 3.84 % ID/g, the Brain is 0.31 ± 0.07 % ID/g, the Heart came out at 5.98 ± 0.93 % ID/g and the Intestine was determined as 3.23 ± 0.18 % ID/g. Besides, in data set [3] (4 h after administration), the Kidney was determined as 100 ± 6.33 % ID/g, the “LNCaP Tumor” value stood at 11.3 ± 2.39 % ID/g, the Liver amounted to 3.36 ± 0.39 % ID/g and the Lung turned out to be 14.1 ± 2.06 % ID/g. In addition, in data set [3] (4 h after administration), the Muscle was 1.26 ± 0.18 % ID/g, the Pancreas amounted to 2.17 ± 0.15 % ID/g, the Spleen stood at 7.42 ± 0.88 % ID/g and the “Stomach (% ID)” value is reported as 0.78 ± 0.28 % ID. For the same compound, in data set [3] (24 h after administration), the Blood came out at 7.20 ± 0.50 % ID/g, the Brain is 0.16 ± 0.01 % ID/g, the Heart was 2.50 ± 0.17 % ID/g and the Intestine was determined as 1.23 ± 0.28 % ID/g. Moreover, in data set [3] (24 h after administration), the Kidney worked out at 26.4 ± 2.50 % ID/g, the “LNCaP Tumor” value is 8.04 ± 0.38 % ID/g, the Liver is reported as 1.73 ± 0.09 % ID/g and the Lung was determined as 5.85 ± 0.39 % ID/g. For the same compound, in data set [3] (24 h after administration), the Muscle was determined as 0.61 ± 0.04 % ID/g, the Pancreas is reported as 1.24 ± 0.16 % ID/g, the Spleen came to 2.87 ± 0.40 % ID/g and the “Stomach (% ID)” value was determined as 0.25 ± 0.08 % ID. In addition, in data set [3] (48 h after administration), the Blood was determined as 3.88 ± 1.13 % ID/g, the Brain is 0.12 ± 0.02 % ID/g, the Heart was 1.37 ± 0.18 % ID/g and the Intestine was 0.62 ± 0.14 % ID/g. Also, in data set [3] (48 h after administration), the Kidney turned out to be 17.3 ± 5.57 % ID/g, the “LNCaP Tumor” value came to 7.79 ± 2.72 % ID/g, the Liver stood at 1.42 ± 0.08 % ID/g and the Lung turned out to be 3.18 ± 0.68 % ID/g. For the same compound, in data set [3] (48 h after administration), the Muscle worked out at 0.26 ± 0.05 % ID/g, the Pancreas worked out at 0.60 ± 0.13 % ID/g, the Spleen is reported as 1.76 ± 0.39 % ID/g and the “Stomach (% ID)” value is 0.13 ± 0.04 % ID. Moreover, in data set [3] (96 h after administration), the Blood was found to be 0.63 ± 0.32 % ID/g, the Brain is 0.07 ± 0.02 % ID/g, the Heart is recorded as 0.43 ± 0.17 % ID/g and the Intestine amounted to 0.29 ± 0.09 % ID/g. Further, in data set [3] (96 h after administration), the Kidney was found to be 4.33 ± 2.06 % ID/g, the “LNCaP Tumor” value amounted to 4.17 ± 0.80 % ID/g, the Liver is 0.70 ± 0.25 % ID/g and the Lung amounted to 0.78 ± 0.29 % ID/g. In addition, in data set [3] (96 h after administration), the Muscle worked out at 0.08 ± 0.03 % ID/g, the Pancreas came to 0.22 ± 0.06 % ID/g, the Spleen came to 0.88 ± 0.32 % ID/g and the “Stomach (% ID)” value stood at 0.06 ± 0.03 % ID. For the same compound, in data set [3] (192 h after administration), the Blood is recorded as 0.03 ± 0.00 % ID/g, the Brain turned out to be 0.02 ± 0.01 % ID/g, the Heart was 0.12 ± 0.02 % ID/g and the Intestine came to 0.05 ± 0.01 % ID/g. In data set [3] (192 h after administration), the Kidney is 0.27 ± 0.02 % ID/g, the “LNCaP Tumor” value is listed as 1.31 ± 0.49 % ID/g, the Liver was found to be 0.35 ± 0.04 % ID/g and the Lung came to 0.12 ± 0.04 % ID/g. Further, in data set [3] (192 h after administration), the Muscle was found to be 0.01 ± 0.02 % ID/g, the Pancreas is 0.07 ± 0.01 % ID/g, the Spleen came out at 0.31 ± 0.11 % ID/g and the “Stomach (% ID)” value is recorded as 0.01 ± 0.00 % ID. The “radioactivity in the eluate (in words)” value in data set [4] was “significantly higher”.
In the case of `O=C([O-])CN1CCN(C(CCC(=O)NCCCC[C@H](NC(=O)N[C@@H](CCC(=O)O)C(=O)O)C(=O)O)C(=O)[O-])CCN(CC(=O)[O-])CCN(C(CCC(=O)N[C@@H](CCCCNC(=O)CCCc2ccc(I)cc2)C(=O)O)C(=O)[O-])CC1.[225Ac+3]` (stereo partly shown) [[^225Ac]Ac-PSMA-DA1], in the data set on LNCaP tumor [5], the body weight reduction result is reported as “transient”, the “growth suppression continuously observed until” value was 6 weeks and the “tumor growth compared with the control group” value is “significantly suppressed”.
For the compound `O=C([O-])CN1CCN(C(CCC(=O)NCCCC[C@H](NC(=O)N[C@@H](CCC(=O)O)C(=O)O)C(=O)O)C(=O)[O-])CCN(CC(=O)[O-])CCN(C(CCC(=O)Nc2ccccc2)C(=O)[O-])CC1.[225Ac+3]` (stereo partly shown) [[^225Ac]Ac-PSMA-DB, reference compound], in the data set with LNCaP tumor [5], the body weight reduction result is on record as “no sign of recovery” and the “tumor growth compared with the control group” value is given as “significantly suppressed”.
